Here are results for 15 molecules from US7517913B2, “Polyamine conjugates with acidic retinoids and preparation thereof” (priority 2002, dated 2009).

The term Ki denotes the equilibrium dissociation constant of an inhibitor or competing ligand from its target. Low values mean a stronger hold on the target, high ones a looser hold on the target.

Molecules are shown by their SMILES. Counter-ions that a name gives are not always drawn.

Assay [1] concerns the target RNase P from Dictyostelium discoideum. Kind of assay: RNase P inhibition (pre-tRNA(Ser) cleavage, double reciprocal plots and slope replots). Particulars: D. discoideum RNase P; 37° C., buffer D, 10% DMSO; from negative intercept of the slope replots. The format is biochemical. The source says: Inhibitory Activity on RNAse P. We have developed a method by which we can estimate rapidly the biological activity of the polyamine-retinoid conjugates. This method is based on the effect of the polyamine-retinoid conjugates on RNase P activity and is described in detail under the EXAMPLE 7. All synthesized conjugates were screened for their effect on RNase P activity by constructing the dose response curves. […] The accurate estimation of the inhibitory potency on the RNAse P of the strongest polyamine-retinoid conjugates were elucidated by detailed kinetic analysis of their effect on D. discoideum or human epidermal keratinocytes RNase P activity. In order to carry out such analysis, the initial velocity in the presence or absence of the conjugate was determined from the initial slopes of time plots. The data plotted in double reciprocal plots (1/v versus 1/[S]) with increasing concentrations of polyamine-retinoid conjugates and the Ki values (the dissociation constant of the inhibitor (I), where I is a polyamine-retinoid conjugate, with the enzyme) were determined from the replots of the slopes of the double reciprocal plots versus the inhibitor's concentration (Papadimou et al., J. BIOL. CHEM. 273, 24375 (1998), Papadimou et al., SKIN PHARMACOL. APPL. SKIN PHYSIOL. 13, 345 (2000)). These replots lead to the graphical determination of Ki values from the negative intercept of the line with the I-axis. […] Similar plots were constructed for all conjugates. The Ki value is a very good measure for the accurate potency of the polyamine-retinoid conjugates. […] Similar Ki values were obtained with normal human epidermal keratinocytes RNase P.
(§1) RNase P assays were carried out at 37° C. in 20 μbuffer D (50 mM Tris/HCl pH 7.6, 10 mM NH4Cl, 5 mM MgCl2 and 5 mM dithiothreitol) if RNase P isolated from D. discoideum was used (Stathopoulos et al.; EUR. J. BIOCHEM. 228, 976 (1995)) or buffer K (50 mM Tris/HCl pH 7.5, 100 mM NH4Cl, 5 mM MgCl2 and 5 mM dithiothreitol) if RNase P isolated from human epidermal keratinocytes was used (Drainas et al, unpublished data), containing 2-5 finol pre-tRNA^ser substrate (an in vitro labeled transcript of the Schizosaccharoinyces pombe tRNA^ser gene supSI) and 1.3 μg protein from the RNase P fraction. Stock solutions of retinoids (natural or synthetic), are prepared in 100% dimethylosulfoxide (DMSO). When retinoids are used, enzyme assays are carried out in the presence of 10% DMSO. The reactions were stopped by addition of 5 μl stop dye (80% formamide, 50 mM EDTA, 0.1% bromophenol blue, 0.1% xylene cyanol). Reaction products were resolved on a denaturing 10% polyacrylamide/8 M urea gel and visualized by autoradiography without drying. Activity was quantified by Cerenkov counting of excised gel slices.

The subject of assay [2] is RNase P from Dictyostelium discoideum. Particulars: literature; RNase P isolated from D. discoideum and from normal human epidermal keratinocytes; cited from earlier work.
For assay [3], the system named is RNase P isolated from D. discoideum. Particulars: literature reports; RNase P from D. discoideum and normal human epidermal keratinocytes; cited from earlier work.
The conditions of assay [4]: Manfredini et al., J. MED. CHEM., 40, 3851 (1997); cited from earlier work.
Assay [5] concerns the target RNase P isolated from D. discoideum. Kind of assay: RNase P inhibition assay, enzyme from D. discoideum. The format is biochemical, Dictyostelium discoideum. Particulars: negative intercept of slope replots, 37° C., buffer D, 10% DMSO.
Excerpt: Inhibitory Activity on RNAse P. We have developed a method by which we can estimate rapidly the biological activity of the polyamine-retinoid conjugates. This method is based on the effect of the polyamine-retinoid conjugates on RNase P activity and is described in detail under the EXAMPLE 7. All synthesized conjugates were screened for their effect on RNase P activity by constructing the dose response curves. […] In order to carry out such analysis, the initial velocity in the presence or absence of the conjugate was determined from the initial slopes of time plots. The data plotted in double reciprocal plots (1/v versus 1/[S]) with increasing concentrations of polyamine-retinoid conjugates and the Ki values (the dissociation constant of the inhibitor (I), where I is a polyamine-retinoid conjugate, with the enzyme) were determined from the replots of the slopes of the double reciprocal plots versus the inhibitor's concentration (Papadimou et al., J. BIOL. CHEM. 273, 24375 (1998), Papadimou et al., SKIN PHARMACOL. APPL. SKIN PHYSIOL. 13, 345 (2000)). These replots lead to the graphical determination of Ki values from the negative intercept of the line with the I-axis. […] Similar plots were constructed for all conjugates. The Ki value is a very good measure for the accurate potency of the polyamine-retinoid conjugates.
as §1

For assay [6], the system named is IFN-γ production by peripheral blood mononuclear cells. Briefly: Intracellular IFN-γ in PMA/ionomycin-stimulated peripheral blood mononuclear cells (flow cytometry). The format is cell-based, human. The procedure:
(§2) Anti-Inflammatory Activity. Preliminary experiments were performed to determine the optimum conditions for IL-2 and IFN-γ detection intracellularly (data not shown), which mainly involved determination of brefeldin, ionomycin and PMA concentrations and duration of the incubation period and of the brefeldin presence. It was determined that the addition at the initiation of the incubation period of 5 ng/ml of PMA in combination with 250 ng/ml of ionomycin, as well as the addition for the last 2 h of a 4 h incubation period of 5 μg/ml of brefeldin, were accompanied by a peak release of both cytokines in the intracellular space.
(§3) For the purpose of the study, peripheral blood mononuclear cells (PBMC) from ten healthy volunteers (age 33-52 yrs) were incubated in 1 ml volume (RPMI 1640/10% FCS) for varying time periods at 37° C. in a CO2 (5%) incubator in the presence or absence of PMA (Sigma, St Louis, Mo.), ionomycin (Sigma, St Louis, Mo.) and/or the polyamine-retinoid conjugate (10^−4, 10^−5, 10^−6 M) as well as a protein transport inhibitor, brefeldin (Sigma, St Louis, Mo.) to prevent cytokine secretion in the extracellular space.
Following this incubation, PBMC were stained with either an anti-CD4-FITC or anti-CD8-FITC monoclonal antibody (Beckton Dikinson Hellas, Athens, Greece) in a PBS buffer containing 0.5% BSA and 0.01% NaN3, and were subsequently fixed with paraformaldehyde and incubated overnight. […] Fixed PBMC were subsequently stained with an anti-IL-2/PE or anti-IFN-γ/PE monoclonal antibody (Diaclone, Besancon, France) and analysed for intracellular expression of IL-2 or IFN-γ and membrane expression of the CD4 or CD8 antigens in a FACSCAN flow cytometer. […] The immunofluorescence cut-off was set up in unstimulated cultures as background and results were expressed either as the percentage of CD4/IL-2+ and CD8/IL-2+ (FIG. 9) and CD8/IFN-γ^+ and CD4/IFN-γ^+ (FIG. 11) cells, or alternatively as their mean fluorescence intensity (FIGS. 10 and 12, respectively).

For assay [7], the system named is IL-2 production by peripheral blood mononuclear cells. Briefly: Intracellular IL-2 in PMA/ionomycin-stimulated peripheral blood mononuclear cells (flow cytometry). The format is cell-based, human. The procedure:
as §2, §3
Following this incubation, PBMC were stained with either an anti-CD4-FITC or anti-CD8-FITC monoclonal antibody (Beckton Dikinson Hellas, Athens, Greece) in a PBS buffer containing 0.5% BSA and 0.01% NaN3, and were subsequently fixed with paraformaldehyde and incubated overnight. In the next step, fixed PBMCs were washed and resuspended in a PBS buffer containing 0.5% BSA, 0.5% saponin (Sigma, St Louis, Mo.) (to permeabilize cells) and 0.01% NaN3. Fixed PBMC were subsequently stained with an anti-IL-2/PE or anti-IFN-γ/PE monoclonal antibody (Diaclone, Besancon, France) and analysed for intracellular expression of IL-2 or IFN-γ and membrane expression of the CD4 or CD8 antigens in a FACSCAN flow cytometer. Throughout this step, saponin-supplied PBS was used, since its permeabilisation effect is reversible. The immunofluorescence cut-off was set up in unstimulated cultures as background and results were expressed either as the percentage of CD4/IL-2+ and CD8/IL-2+ (FIG. 9) and CD8/IFN-γ^+ and CD4/IFN-γ^+ (FIG. 11) cells, or alternatively as their mean fluorescence intensity (FIGS. 10 and 12, respectively).
In general terms: Flow cytometry measures light scatter and fluorescence of single cells or particles in a stream.

Molecule `COc1cc(C)c(/C=C/C(C)=C/C=C/C(C)=C/C(=O)NCCCNCCCCNCCCN)c(C)c1C` [N^1-Aci-Spermine (3DIIb). 3 HCl, N^1-Aci-Spermine] showed a Ki in assay [1] of 2.45 µM.
Take `CCS(=O)(=O)c1ccc(/C=C(\C)c2ccc3c(c2)C(C)(C)CCC3(C)C)cc1` [Ro 15-1570]: in assay [2], the “inhibition of the enzyme ribonuclease P (RNase P)” value is recorded as “inhibit the enzyme ribonuclease P”. The “inhibition of ribonuclease P (RNase P)” value in assay [3] is given as “inhibit”. Besides, the inhibition constant Ki in assay [1] is 3600 µM.
Regarding `CC1=C(/C=C/C(C)=C/C=C/C(C)=C/C(=O)NCCCNC(=O)/C=C(C)/C=C/C=C(C)/C=C/C2=C(C)CCCC2(C)C)C(C)(C)CCC1` [N^1, N^3-diretinoyl-1,3-diaminopropane], in assay [4], the cytostatic activity result is “low cytostatic activity”.
Take `COc1cc(C)c(/C=C/C(C)=C/C=C/C(C)=C/C(=O)O)c(C)c1C` [Acitretin (Aci), acitretin]: the “inhibition of the enzyme ribonuclease P (RNase P)” value in assay [2] is “inhibit the enzyme ribonuclease P”. In assay [3], the “inhibition of ribonuclease P (RNase P)” value is “inhibit”. In assay [5], this molecule displayed a Ki of 8 µM.
`CC(C=CC1=C(C)CCCC1(C)C)=CC=CC(C)=CC(=O)NCCCNCCCCNCCCN` [3DIIa, N^1-retinoylspermine] yielded a Ki in assay [5] of 2.4 µM.
`COc1cc(C)c(/C=C/C(C)=C/C=C/C(C)=C/C(=O)NCCCNCCCCNCCCNC(=O)/C=C(C)/C=C/C=C(C)/C=C/c2c(C)cc(OC)c(C)c2C)c(C)c1C` [N^1,N^12-Aci2-Spermine (3DIb). 2 HCl, N^1,N^12-Aci2-Spermine] came in with a Ki in assay [1] of 0.95 µM.
In the case of `CC1=C(/C=C/C(C)=C/C=C/C(C)=C/CO)C(C)(C)CCC1` [Retinol, retinol], in assay [2], the “inhibition of the enzyme ribonuclease P (RNase P)” value is on record as “inhibit the enzyme ribonuclease P”. Moreover, the “inhibition of ribonuclease P (RNase P)” value in assay [3] is on record as “inhibit”. In addition, the Ki in assay [5] was 1480 µM.
`C/C(=C\c1ccc(C(=O)O)cc1)c1ccc2c(c1)C(C)(C)CCC2(C)C` [Ro 13-7410]: the “inhibition of the enzyme ribonuclease P (RNase P)” value in assay [2] was “inhibit the enzyme ribonuclease P”. Also, the “inhibition of ribonuclease P (RNase P)” value in assay [3] is given as “inhibit”. Moreover, in assay [1], the affinity, expressed as Ki, was 45 µM.
`O=C1c2c(O)cccc2Cc2cccc(O)c21` [anthralin]: in assay [2], the “inhibition of the enzyme ribonuclease P (RNase P)” value is recorded as “inhibit the enzyme ribonuclease P”.
Regarding `CC1=C(/C=C/C(C)=C/C=C/C(C)=C/C(=O)NCCCNCCCCNCCCNC(=O)/C=C(C)/C=C/C=C(C)/C=C/C2=C(C)CCCC2(C)C)C(C)(C)CCC1` [N^1,N^12-RA2-Spermine (3DIa), N^1,N^12-Bisretinoylspermine], in assay [6] (10^−4 M, PMA/ionomycin-induced), the “CD4+/IFN-γ+ cell intensity of fluorescence” value is recorded as “decrease” and the “percentage of CD8+/IFN-γ+ cells” value is given as “decrease”. For the same molecule, the “effect on IFN-γ (CD4+/IFN-γ+ intensity of fluorescence, percentage of CD8+/IFN-γ+ cells)” value in assay [6] (two lower concentrations, 10^−5 and 10^−6 M) is recorded as “minimal or no effect”. Besides, in assay [7] (10^−4 M, PMA/ionomycin-induced), the “intensity of fluorescence (MFI) of CD4+/IL-2+ cells” value was “decrease”, the “intensity of fluorescence (MFI) of CD8+/IL-2+ cells” value is given as “decrease”, the “percentage of CD4+/IL-2+ cells” value is reported as “decrease” and the “percentage of CD8+/IL-2+ cells” value is “decrease”. Besides, in assay [7] (10^−5 and 10^−6 M), the “effect on PMA/ionomycin-induced IL-2 (percentage of CD4+/IL-2+ and CD8+/IL-2+ cells, intensity of fluorescence)” value is given as “minimal or no effect”. The molecule further displayed an inhibition constant Ki in assay [1] of 0.5 µM.
Regarding `CC1=C(/C=C/C(C)=C/C=C/C(C)=C\C(=O)O)C(C)(C)CCC1` [Isotretinoin, 13-cis-retinoic acid], the “inhibition of the enzyme ribonuclease P (RNase P)” value in assay [2] is “inhibit the enzyme ribonuclease P”. Besides, the “inhibition of ribonuclease P (RNase P)” value in assay [3] was “inhibit”. The Ki in assay [5] worked out at 20 µM.
Turning to `CC1=C(/C=C/C(C)=C/C=C/C(C)=C/C(=O)O)C(C)(C)CCC1` [all-trans-Retinoic acid (RA), all-trans-retinoic acid], in assay [2], the “inhibition of the enzyme ribonuclease P (RNase P)” value was “inhibit the enzyme ribonuclease P”. In assay [3], the “inhibition of ribonuclease P (RNase P)” value is listed as “inhibit”. Also, affinity in assay [5] was put at a Ki of 15 µM.
`CC(C=CC1=C(C)CCCC1(C)C)=CC=CC(C)=CC(=O)N(CCCN)CCCCN(CCCN)C(=O)C=C(C)C=CC=C(C)C=CC1=C(C)CCCC1(C)C` [3DIIIa, N^4,N^9-Bis(All-Trans-Retinoyl)Spermine] yielded a Ki in assay [5] of 1.1 µM. In other words, the single-digit micromolar range.
Consider `CCOC(=O)c1ccc(/C=C(\C)c2ccc3c(c2)C(C)(C)CCC3(C)C)cc1` [Ro 13-6298], for which the “inhibition of the enzyme ribonuclease P (RNase P)” value in assay [2] is listed as “inhibit the enzyme ribonuclease P”. The “inhibition of ribonuclease P (RNase P)” value in assay [3] is “inhibit”. In assay [1], the affinity, expressed as Ki, was 4350 µM.
Regarding `C=C1/C(=C\C=C2/CCC[C@]3(C)[C@@H]([C@H](C)/C=C/[C@@H](O)C4CC4)CC[C@@H]23)C[C@@H](O)C[C@@H]1O` [calcipotriol], the “inhibition of the enzyme ribonuclease P (RNase P)” value in assay [2] is “inhibit the enzyme ribonuclease P”. Besides, the “inhibition of ribonuclease P (RNase P)” value in assay [3] is listed as “inhibit”.
